Experimental findings from patent publication US12630537B2, “Pyridazinone and methods of use thereof” (ALIGOS THERAPEUTICS, INC., priority 2020, dated 2026) are described below.

One data set addresses T1, THR alpha (Homo sapiens, UniProt P10827).
T1 construct: expressed in transfected cells; host or cells: HEK293T (ATCC CRL-3216)
T1 sequence (P10827 1-410 isoform P10827-2): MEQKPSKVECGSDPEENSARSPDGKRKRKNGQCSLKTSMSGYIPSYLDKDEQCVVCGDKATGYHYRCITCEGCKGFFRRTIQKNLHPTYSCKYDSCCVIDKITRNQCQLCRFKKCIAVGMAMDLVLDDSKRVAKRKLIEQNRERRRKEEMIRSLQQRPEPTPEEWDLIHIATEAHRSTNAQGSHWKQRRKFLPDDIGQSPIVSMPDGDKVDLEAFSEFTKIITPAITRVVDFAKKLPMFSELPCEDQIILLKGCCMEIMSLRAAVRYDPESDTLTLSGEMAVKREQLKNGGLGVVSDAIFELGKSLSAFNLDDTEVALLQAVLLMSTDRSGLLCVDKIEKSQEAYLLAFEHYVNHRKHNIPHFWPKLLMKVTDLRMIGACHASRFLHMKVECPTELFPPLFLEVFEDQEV
T1 sequence (P19793 1-462 partner): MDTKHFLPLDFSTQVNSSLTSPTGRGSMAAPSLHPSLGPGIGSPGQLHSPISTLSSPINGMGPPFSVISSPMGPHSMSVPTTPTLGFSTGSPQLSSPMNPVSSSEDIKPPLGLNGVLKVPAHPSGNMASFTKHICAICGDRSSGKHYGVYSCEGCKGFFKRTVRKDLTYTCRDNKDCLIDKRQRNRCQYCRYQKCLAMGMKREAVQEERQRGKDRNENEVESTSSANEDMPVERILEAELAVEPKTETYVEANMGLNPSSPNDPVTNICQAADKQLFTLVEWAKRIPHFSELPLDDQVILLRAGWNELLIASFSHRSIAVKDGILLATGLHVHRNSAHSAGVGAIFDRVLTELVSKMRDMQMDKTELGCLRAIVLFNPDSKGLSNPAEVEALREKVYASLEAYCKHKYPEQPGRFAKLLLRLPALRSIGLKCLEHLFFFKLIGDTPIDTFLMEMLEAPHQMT
The experiment in a line: HEK293T THRalpha/RXR luciferase reporter assay. The format is cell-based. Particulars: HEK293T TRE-luciferase reporter, 18-24 h; read-out: EC50 THR-α (HEK 293 Activity). As to the method:
(§1) The purpose of this assay is to evaluate the effect of compounds on the thyroid hormone nuclear receptor pathway in HEK293T cells. To this end, HEK293T cells are transiently transfected with a luciferase reporter under the control of the thyroid response element (TRE), an RXR expression plasmid and either a THR alpha or THR beta expression plasmid. Transfected cells are stimulated with test compounds for 18-24 hours before activation of the thyroid hormone pathway is measured via a luciferase read-out.
(§2) Procedure. 24 hours prior to transfection, approximately […] HEK293T (ATCC, catalog #CRL-3216) were plated in one well of a 6-well-plate using DMEM (Hyclone, catalog #SH30022) supplemented with 10% FBS (Gibco, catalog #16000-044) and incubated overnight. Transfection complexes were prepared by mixing 12 μL of Lipofectamine 2000 (Invitrogen catalog #11668019) with 4 μg of a plasmid mixture at a ratio of 1:1:4 (TRalpha or TRbeta:RXR:TRE-Luc) in 200 μL OptiMem (Invitrogen catalog #11058-021) and added to the cells. […] Approximately 18-24 h after compound addition, 384 well plates were allowed to adjust to rt, 30 μL One-Glo (Promega catalog #E6120) is added to each well and luminescence was measured on a Perkin Elmer Enspire plate reader. Percent agonism was calculated using the following equation: 100×(sample−negative control)/(positive control−negative control).
On the technique in general: A reporter such as luciferase makes a cellular process visible.

In another data set the target is T2, THR beta (Homo sapiens, UniProt P10828).
T2 construct: expressed in transfected cells; host or cells: HEK293T (ATCC CRL-3216)
T2 sequence (P10828 1-461): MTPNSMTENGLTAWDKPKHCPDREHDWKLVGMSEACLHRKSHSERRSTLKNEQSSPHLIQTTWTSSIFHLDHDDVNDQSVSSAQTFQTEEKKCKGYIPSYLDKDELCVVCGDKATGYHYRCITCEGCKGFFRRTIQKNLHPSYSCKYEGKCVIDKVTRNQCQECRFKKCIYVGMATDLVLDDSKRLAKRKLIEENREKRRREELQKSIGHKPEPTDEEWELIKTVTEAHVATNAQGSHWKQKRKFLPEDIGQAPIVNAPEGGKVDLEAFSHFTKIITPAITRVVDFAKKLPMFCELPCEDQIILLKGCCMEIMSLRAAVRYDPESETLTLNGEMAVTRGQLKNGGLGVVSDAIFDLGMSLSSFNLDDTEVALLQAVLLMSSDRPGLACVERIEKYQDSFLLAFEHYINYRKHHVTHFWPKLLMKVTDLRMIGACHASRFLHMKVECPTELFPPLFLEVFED
T2 sequence (P19793 1-462 partner): T1 sequence (P19793 1-462 partner)
Put plainly: HEK293T THRbeta/RXR luciferase reporter assay. The format is cell-based. As to the method: as §1, §2

Data set [1] is described as follows: Pharmacokinetics in rat (i.v.). The format is in vivo, Male Sprague-Dawley rats. Particulars: for concentration at 12 h / clearance / half-life: male, Sprague-Dawley, iv 1 mg/kg; for clearance / half-life: 60% PEG400 in water. As to the method: Male Sprague-Dawley rats were administered the study compound as an i.v. bolus dose of 1 mg/kg in a 0.500 mg/mL solution in 60% PEG400 in water.

Data set [2] in a line: Microsomal stability assay, mouse. In kind it is in vitro ADME. Particulars: for Liver Microsomes % Remaining: 1 μM, time point not given; for half-life at 1 μM: liver microsomes, pH 7.4, 0.5 mg/mL microsomes, read-out: Liver Microsomes T1/2. As to the method:
(§3) The assay was carried out in 96-well microtiter plates. Test compounds, at a final concentration of 1 μM was incubated at 37° C. with 0.5 mg/mL liver microsomes, and +/−1 mM NADPH in 100 mM potassium phosphate, pH 7.4 buffer with 3.3 mM MgCl2. […] At each of the time points (0, 15, 30 and 60 min), incubation was stopped by adding 150 μL of the quenching solutions (100% acetonitrile, 0.1% formic acid) and subsequently the mixtures were vortexed vigorously for 20 min and centrifuged at 4,000 RPM at 4° C. The supernatants (80 μL) were transferred to a clean 96-well plate and analyzed by LC/MS/MS. Verapamil at 1 μM with a final 0.1% DMSO was included as a positive control to verify assay performance.
A general note: Liver microsomes are a subcellular fraction often used to study metabolism.

The nature of data set [3]: Microsomal stability assay, rat. The format is in vitro ADME. The note with it: for Liver Microsomes % Remaining: 1 μM, time point not given; for half-life at 1 μM: liver microsomes, pH 7.4, 0.5 mg/mL microsomes, read-out: Liver Microsomes T1/2. As to the method:
as §3

Data set [4] is described as follows: Microsomal stability assay, human. The format is in vitro ADME. The note with it: for Liver Microsomes % Remaining: 1 μM, time point not given; for half-life at 1 μM: liver microsomes, pH 7.4, 0.5 mg/mL microsomes, read-out: Liver Microsomes T1/2. As to the method: as §3
A short description of data set [5]: Hepatocyte stability assay, mouse. The format is in vitro ADME. The note with it: for Hepatocytes % Remaining: 1 μM, time point not given; for half-life at 1 μM: cryopreserved hepatocytes, 0.5 million cells/mL, read-out: Hepatocytes T1/2. As to the method: (§4) Cryopreserved hepatocytes were taken from the liquid nitrogen tank and thawed quickly in a 37° C. water bath. As soon as the cells pulled away from the vial wall, they were decanted into 48 mL of warm thawing (HT) medium. Cells were centrifuged for 5 minutes at 420 RPM (50 g). After removing the supernatant, the pellets were re-suspended in 4 mL of warm Dulbecco's Modified Eagle Medium (DMEM). Cell density was counted by a hemocytometer.
(§5) The assay was carried out in 96-well microtiter plates. The study compound was incubated at 1 μM with 0.5 million cells/mL hepatocytes in DMEM for 0, 60, 120, and 180 minutes at 37° C. The volume of the incubation mixture was 37 μL with a final DMSO content of 0.1%. At each time point, the incubation was stopped by the addition of 150 μL quenching solution (100% acetonitrile, 0.1% formic acid containing the internal standard bucetin at 15 nM). Subsequently, the mixtures were vortexed for 20 minutes and centrifuged at 4,000 RPM at 10° C. An aliquot of 80 μL of the supernatant was transferred to a clean 96-well plate and analyzed by LC/MS/MS. Midazolam at 1 μM with a final DMSO content of 0.1% was included as a positive control to verify the assay performance.

A short description of data set [6]: Hepatocyte stability assay, rat. The format is in vitro ADME. The note with it: for Hepatocytes % Remaining: 1 μM, time point not given; for half-life at 1 μM: cryopreserved hepatocytes, 0.5 million cells/mL, read-out: Hepatocytes T1/2. As to the method:
as §4, §5

Data set [7] can be described thus: Hepatocyte stability assay, human. In kind it is in vitro ADME. The note with it: for Hepatocytes % Remaining: 1 μM, time point not given; for half-life at 1 μM: cryopreserved hepatocytes, 0.5 million cells/mL, read-out: Hepatocytes T1/2. As to the method: as §4, §5
Data set [8] can be described thus: Pharmacokinetic profile in mouse. In kind it is in vivo.
Data set [9] relates to WT C57BL/6 mice fed a high fat diet. Put plainly: Cholesterol reduction in a murine efficacy model. The note with it: 0.025 mg/kg BID p.o., 7 days, high fat diet C57BL/6 mice. The format is in vivo, mouse. As to the method:
Model description. WT C57BL/6 mice were fed a high fat diet (D12109C) for 2 weeks. Prior to the administration of compound 1a, blood was drawn to measure the baseline lipid levels. Compound 1a was dosed daily (p.o.) for 7 days. Blood was drawn to measure lipid levels.

Data set [10] has as its target T3, human thyroid receptor beta ligand-binding domain (THR-β) (Homo sapiens, UniProt P10828).
T3 sequence (P10828 217-461 limits assumed): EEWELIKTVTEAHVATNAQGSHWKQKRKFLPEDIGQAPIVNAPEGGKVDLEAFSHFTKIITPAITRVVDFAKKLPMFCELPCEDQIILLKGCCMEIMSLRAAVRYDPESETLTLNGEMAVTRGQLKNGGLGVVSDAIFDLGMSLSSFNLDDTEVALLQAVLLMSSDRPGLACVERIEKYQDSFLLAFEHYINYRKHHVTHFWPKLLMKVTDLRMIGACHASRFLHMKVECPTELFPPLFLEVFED
The experiment in a line: TR-FRET thyroid receptor beta coactivator assay (THR biochemical assay). In general terms: Time-resolved FRET reads energy transfer from a long-lived donor to a nearby acceptor.
Excerpt: (§6) The TR-FRET thyroid receptor beta coactivator assay was used with slight, optimized modifications of the manufacturer's protocol (Invitrogen). The assay uses a terbium-labeled anti-GST antibody, a glutathione-S-transferase (GST) tagged human thyroid receptor, beta or alpha, ligand-binding domain (LBD), and a fluorescein labeled SRC2-2 coactivator peptide. […] The energy transfer was detected as an increase in the fluorescence emission of the fluorescein acceptor, and a decrease in the fluorescence emission of the terbium donor. The assay was performed in a 384-well black plate in a final volume of 20 μL. Serial dilution of various test agonists was performed in DMSO (1% final DMSO concentration) and added to the test plate. Thyroid receptor beta LBD was added to the plate at a final concentration of 1 nM, followed by the mixture of the fluorescein labeled SRC2-2 coactivator peptide, and the terbium-labeled anti-GST antibody at final concentrations of 200 nM and 2 nM respectively. The assay was incubated for 1 hr at rt protected from light.

Data set [11] deals with human thyroid receptor alpha ligand-binding domain (THR-α) (Homo sapiens, UniProt P10827). Put plainly: TR-FRET thyroid receptor coactivator assay (THR biochemical assay), alpha.
Excerpt: as §6

pEC50: −log10 of the molar value. Like-named read-outs stand apart in the source and are kept apart here.

Turning to `CC(c1cc(Oc2c(Cl)cc(-n3nc(N)c(=O)[nH]c3=O)cc2Cl)n[nH]c1=O)C1CC1` (single isomer, unassigned) [Compound 1a], the pEC50 (as a rule, the negative decadic logarithm of the EC50, by convention in mol/L) is 6.70 on THR alpha; 7.42 at THR beta (HEK293T TRE-luciferase reporter, 18-24 h, read-out: EC50 THR-β (HEK 293 Activity)); 7.59 in [10]; 6.60 in data set [11]. The “THR-β Selectivity (HEK 293 Activity)” value on THR beta (THR-β over THR-α, HEK293T reporter) amounted to 5. Further, the results for the “Liver/Heart Concentration” value in data set [1] (at 12 h) and in data set [8] (at 24 h) were 62 at 12 h and 27.6 at 24 h, respectively. Further, the “in vivo half-life compared to compound 2” value in data set [1] (comparison in words) is “unexpectedly longer”. In addition, the concentration at 12 h in data set [1] (liver, read-out: Liver conc. 12 h) was 14400 ng/g; in [1] (plasma, read-out: Plasma conc. 12 h), 336 ng/mL. Further, the clearance (as a rule, the volume of plasma or blood freed of the substance per unit of time) is 2.14 mL/min/kg in [1] (plasma) and 6.3 mL/min/kg in [8] (in vivo). Further, the half-life is 5.25 h in data set [1] (plasma) and 2.87 h in [8] (in vivo). The “Liver Microsomes % Remaining” value in [2] is listed as “(100) %”; in data set [3], “(98) %”; in [4], “(107) %”. Moreover, the half-life at 1 μM is more than 1 h in [2]; more than 1 h in data set [3]; more than 1 h in data set [4]; more than 6 h in [5]; more than 6 h in data set [6]; more than 6 h in data set [7]. In addition, the “Hepatocytes % Remaining” value in data set [5] was “(88) %”; in data set [6], “(107) %”; in data set [7], “(100) %”. Also, the reduction in cholesterol in data set [9] was determined as 24.5%. Besides, the “THR-β Selectivity (Biochemical Activity)” value in data set [10] (THR-β over THR-α, TR-FRET assay) worked out at 9.5. Besides, the “in vitro THR-β selectivity compared to its enantiomer, compound 1b” value in [10] (biochemical assay, comparison in words) is recorded as “higher”.
For the compound `C#Cc1nn(-c2cc(Cl)c(Oc3cc(C(C)C)c(=O)[nH]n3)c(Cl)c2)c(=O)[nH]c1=O` [Compound 2, reference compound], in data set [1] (plasma), the clearance turned out to be 9.14 mL/min/kg. Moreover, the half-life in data set [1] (plasma) was 1.31 h. Also, the “Liver Microsomes % Remaining” value is listed as “(94) %” in data set [2], “(85) %” in data set [3] and “(84) %” in data set [4]. The half-life at 1 μM in data set [2] is more than 1 h; in [3], more than 1 h; in [4], more than 1 h; in data set [5], 1.18 h; in data set [6] it was 1.43 h; in [7], 1.72 h. The “Hepatocytes % Remaining” value in [5] is reported as “(18) %”; in [6], “(24) %”; in data set [7], “(31) %”.
